From publication PMC9736079, “ES-Screen: A Novel Electrostatics-Driven Method for Drug Discovery Virtual Screening” (International Journal of Molecular Sciences, 2022)

Assays:
[1] = biological target: T1, human adipocyte fatty acid-binding protein (FABP4) (Homo sapiens, UniProt P15090); assay: Surface Plasmon Resonance (SPR) binding assay, immobilized protein; settings: for binding to immobilized FABP4 in SPR: 200, 100, 50, 25, 12 μM, triplicates
T1 sequence (P15090 2-132): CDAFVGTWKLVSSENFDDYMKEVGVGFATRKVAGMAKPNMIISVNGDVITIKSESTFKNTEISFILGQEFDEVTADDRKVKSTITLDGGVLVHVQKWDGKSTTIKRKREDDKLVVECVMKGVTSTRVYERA
Experimental: (§1) Briefly, mouse extracellular domain 1–2 (EC 1–2) C-terminally cysteine-tagged FABP4 and Aldose Reductase recombinant protein was immobilized on flow cell (FC) 2 in HEPES buffered saline (10 mM Hepes, pH 7.4, and 150 mM NaCl, 3 mM CaCl2) using a thiol-coupling kit according to the manufacturer’s protocol, resulting in immobilization levels of 4580 response units (RU). FC1 was only activated and inactivated and used as a reference. […] Each injection was repeated three times for 60 s. FC1 signals were deducted from FC2 for background noise elimination.

[2] = biological target: human aldose reductase (AKR1B1) (Homo sapiens, UniProt P15121); assay: as above; settings: for binding to immobilized AKR1B1 in SPR: 200, 100, 50, 25, 12 μM, triplicates
Experimental: as §1

JAK2 = biological target: T2, JAK2 (Homo sapiens, UniProt O60674); assay: Kinomescan active site-directed competition kinase binding assay; settings: read-out: Percent Control at 10 µM (Lower Numbers Indicate Stronger Hits)
T2 construct: purchased Discoverx (Kinomescan)
T2 sequence (O60674 840-1132 limits assumed): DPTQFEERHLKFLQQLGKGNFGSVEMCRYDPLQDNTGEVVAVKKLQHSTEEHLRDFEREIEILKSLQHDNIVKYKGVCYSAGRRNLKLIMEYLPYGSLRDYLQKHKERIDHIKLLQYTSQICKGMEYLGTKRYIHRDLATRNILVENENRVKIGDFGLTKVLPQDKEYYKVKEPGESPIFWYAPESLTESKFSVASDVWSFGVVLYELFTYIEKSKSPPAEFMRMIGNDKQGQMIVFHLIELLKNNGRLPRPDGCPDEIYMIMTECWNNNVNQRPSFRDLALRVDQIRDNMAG
Experimental: (§2) Kinase assays were performed using Kinomescan, by Discoverx, CA, USA and Caliper LabChip 3000 by Caliper Life sciences, USA as described by us previously. The determination of Mebendazole (MBZ) thermodynamic binding affinities (Kd) to kinase targets predicted by ES-Screen was performed by using active site-directed competition binding. Kinase-tagged T7 phage strains were grown in parallel in 24-well blocks in an E. coli host derived from the BL21 strain. E. coli bacteria were grown to log-phase and infected with T7 phage from a frozen stock (multiplicity of infection = 0.4) and incubated with shaking at 32 °C until lysis (90–150 min). The lysates were centrifuged (6000× g) and filtered (0.2 μm sieves) to remove cell debris. The remaining kinases were produced in HEK-293 cells and subsequently tagged with DNA for qPCR detection. […] The liganded beads were blocked with excess biotin and washed with blocking buffer (SeaBlock (Pierce), 1% BSA, 0.05% Tween 20, 1 mM DTT) to remove unbound ligands and to reduce non-specific phage binding. Binding reactions were assembled by combining kinases, control liganded affinity beads, and mebendazole in 1× binding buffer (20% SeaBlock, 0.17 × PBS, 0.05% Tween 20, 6 mM DTT). Mebendazole was prepared as 40× stocks in 100% DMSO and directly diluted into the assay. All reactions were performed in polypropylene 384-well plates in a final volume of 0.04 mL. The assay plates were incubated at room temperature with shaking for 1 h and the affinity beads were washed with wash buffer (1 × PBS, 0.05% Tween 20). […] The kinase concentration in the eluates was measured by qPCR. Ligands that bind the kinase active site and directly prevent kinase binding to the immobilized ligand will reduce the amount of kinase captured. […] The amount of kinase captured in test versus control samples were measured by using a quantitative, precise and ultra-sensitive qPCR method that detects the associated DNA label. Using the primary screen binding interactions are reported as ‘% Ctrl’ (Percent kinase remaining activity, Equation (8)), where lower numbers indicate stronger hits. (8) Percent Control (%Ctrl)=Mebendazole signal − Positive control signal/DMSO Negative control signal − Positive control signal × 100
(§3) In a similar manner, binding constants (Kd) for mebendazole-kinase interactions are calculated by measuring the amount of kinase captured as a function of the mebendazole concentration in a dose response manner. […] Most Kds were determined using a starting concentration = 30,000 nM. […] Binding constants (Kd) were calculated with a standard dose–response curve (ligand dose (x-axis)—qPCR signal (y-axis)) using the Hill Equation (9), with the Hill Slope set to −1. […]

RAF1 = biological target: T3, RAF1 (Homo sapiens, UniProt P04049); assay: as above; settings: read-out: Percent Control at 10 µM (Lower Numbers Indicate Stronger Hits)
T3 construct: purchased Discoverx (Kinomescan)
T3 sequence (P04049 whole entry): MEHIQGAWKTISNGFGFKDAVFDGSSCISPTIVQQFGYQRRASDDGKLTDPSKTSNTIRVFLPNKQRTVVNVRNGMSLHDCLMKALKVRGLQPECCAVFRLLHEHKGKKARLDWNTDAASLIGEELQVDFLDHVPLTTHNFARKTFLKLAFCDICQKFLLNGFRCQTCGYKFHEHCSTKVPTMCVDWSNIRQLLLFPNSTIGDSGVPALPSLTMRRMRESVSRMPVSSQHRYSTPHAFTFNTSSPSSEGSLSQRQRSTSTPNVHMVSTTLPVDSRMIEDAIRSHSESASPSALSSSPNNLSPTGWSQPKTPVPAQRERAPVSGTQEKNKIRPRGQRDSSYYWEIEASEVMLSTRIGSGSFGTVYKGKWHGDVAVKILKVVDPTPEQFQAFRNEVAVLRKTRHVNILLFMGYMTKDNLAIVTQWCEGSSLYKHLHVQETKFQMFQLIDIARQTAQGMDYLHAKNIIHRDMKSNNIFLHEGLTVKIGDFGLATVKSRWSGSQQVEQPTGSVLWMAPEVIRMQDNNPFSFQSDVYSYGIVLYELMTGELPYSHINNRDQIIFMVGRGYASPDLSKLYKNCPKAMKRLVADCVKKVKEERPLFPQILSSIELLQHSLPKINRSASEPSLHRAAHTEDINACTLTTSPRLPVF
Experimental: as §2, §3

MKNK2 = biological target: T4, MKNK2 (Homo sapiens, UniProt Q9HBH9); assay: as above; settings: read-out: Percent Control at 10 µM (Lower Numbers Indicate Stronger Hits)
T4 construct: purchased Discoverx (Kinomescan)
T4 sequence (Q9HBH9 whole entry): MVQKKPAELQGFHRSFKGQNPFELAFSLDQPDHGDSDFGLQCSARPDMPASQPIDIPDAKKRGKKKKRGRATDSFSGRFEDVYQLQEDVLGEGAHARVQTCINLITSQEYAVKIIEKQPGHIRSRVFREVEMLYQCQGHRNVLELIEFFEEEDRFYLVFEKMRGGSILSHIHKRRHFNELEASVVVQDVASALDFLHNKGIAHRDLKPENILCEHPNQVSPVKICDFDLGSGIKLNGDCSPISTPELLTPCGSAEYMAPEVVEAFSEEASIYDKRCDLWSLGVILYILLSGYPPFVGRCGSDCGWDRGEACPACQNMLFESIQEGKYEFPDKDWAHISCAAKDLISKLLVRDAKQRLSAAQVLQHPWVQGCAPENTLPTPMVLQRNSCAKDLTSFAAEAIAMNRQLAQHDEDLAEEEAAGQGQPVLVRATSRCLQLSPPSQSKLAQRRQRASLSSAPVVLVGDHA
Experimental: as §2, §3

PIK3CG = biological target: T5, PIK3CG (Homo sapiens, UniProt P48736); assay: as above; settings: read-out: Percent Control at 10 µM (Lower Numbers Indicate Stronger Hits)
T5 construct: purchased Discoverx (Kinomescan)
T5 sequence (P48736 whole entry): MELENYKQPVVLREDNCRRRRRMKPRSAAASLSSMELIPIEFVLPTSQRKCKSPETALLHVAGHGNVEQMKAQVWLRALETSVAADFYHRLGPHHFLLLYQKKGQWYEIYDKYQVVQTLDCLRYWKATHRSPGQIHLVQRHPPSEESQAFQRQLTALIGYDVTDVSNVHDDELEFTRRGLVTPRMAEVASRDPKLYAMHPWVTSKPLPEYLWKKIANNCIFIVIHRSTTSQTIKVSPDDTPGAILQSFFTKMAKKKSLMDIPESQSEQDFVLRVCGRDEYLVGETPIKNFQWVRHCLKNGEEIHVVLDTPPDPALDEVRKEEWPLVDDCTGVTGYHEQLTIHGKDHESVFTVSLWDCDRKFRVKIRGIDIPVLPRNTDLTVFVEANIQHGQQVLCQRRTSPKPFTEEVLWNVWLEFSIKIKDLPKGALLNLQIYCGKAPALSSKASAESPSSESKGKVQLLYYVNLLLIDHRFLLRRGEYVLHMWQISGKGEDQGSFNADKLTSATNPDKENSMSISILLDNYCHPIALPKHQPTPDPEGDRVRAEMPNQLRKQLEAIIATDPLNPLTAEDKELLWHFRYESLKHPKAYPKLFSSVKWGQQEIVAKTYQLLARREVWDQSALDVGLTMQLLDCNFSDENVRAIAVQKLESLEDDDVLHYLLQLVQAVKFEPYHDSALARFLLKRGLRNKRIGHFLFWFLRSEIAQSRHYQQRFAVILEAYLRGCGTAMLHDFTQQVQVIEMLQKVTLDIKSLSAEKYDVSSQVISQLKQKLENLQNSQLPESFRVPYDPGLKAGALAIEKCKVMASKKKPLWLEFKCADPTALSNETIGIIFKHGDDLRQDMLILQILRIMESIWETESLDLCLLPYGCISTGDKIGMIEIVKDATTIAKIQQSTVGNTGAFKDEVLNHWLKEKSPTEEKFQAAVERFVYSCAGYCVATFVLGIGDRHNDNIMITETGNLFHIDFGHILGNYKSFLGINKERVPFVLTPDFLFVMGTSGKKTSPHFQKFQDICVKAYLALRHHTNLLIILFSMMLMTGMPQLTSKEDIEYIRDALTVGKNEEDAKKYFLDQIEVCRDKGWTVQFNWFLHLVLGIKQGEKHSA
Experimental: as §2, §3

Row | binding to immobilized FABP4 in SPR [1] | binding to immobilized AKR1B1 in SPR [2] | Kd ([1]; SPR, FABP4, read-out: KD50) [µM] | Kd ([2]; SPR, AKR1B1, read-out: KD50) [µM] | percent of control kinase binding at 10 µM (JAK2) [%] | remaining binding at 10 µM (RAF1) [%] | remaining binding at 10 µM (MKNK2) [%] | remaining binding at 10 µM (PIK3CG) [%] | Compound
1 | in a dose-dependent manner | in a dose-dependent manner |  |  |  |  |  |  | COc1ccc2c(c1)c(CC(=O)O)c(C)n2C(=O)c1ccc(Cl)cc1 [indomethacin]
2 | in a dose-dependent manner | in a dose-dependent manner |  |  |  |  |  |  | CC1(C)Cc2c(-c3ccccc3)c(-c3ccc(Cl)cc3)c(CC(=O)O)n2C1 [licofelone]
3 | in a dose-dependent manner | in a dose-dependent manner |  |  |  |  |  |  | O=C(O)CCc1nc(-c2ccccc2)c(-c2ccccc2)o1 [oxaprozin]

Row | Compound | binding to immobilized FABP4 in SPR [1] | binding to immobilized AKR1B1 in SPR [2] | Kd ([1]; SPR, FABP4, read-out: KD50) [µM] | Kd ([2]; SPR, AKR1B1, read-out: KD50) [µM] | percent of control kinase binding at 10 µM (JAK2) [%] | remaining binding at 10 µM (RAF1) [%] | remaining binding at 10 µM (MKNK2) [%] | remaining binding at 10 µM (PIK3CG) [%]
4 | COC(=O)Nc1nc2ccc(C(=O)c3ccccc3)cc2[nH]1 [mebendazole] | bind directly, in a dose-dependent manner | bind directly, in a dose-dependent manner | 8.4 | 5.5 | 39 | 23 | 46 | 18
